Source: the supplement of paper PMC5662764
± gives the standard deviation of the averaged measurements.

Columns and labels:
Assay in all cases: normalised growth rate inhibition (GR value) relative to DMSO control (GR (1 = untreated growth, 0 = cytostasis, <0 = cytotoxic)); higher = less growth inhibition
Details in all cases: 72 h
HS578T = system: HS578T
Method: (§1)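 Breast cancer cell lines (BT-20, Hs 578T, MCF 10A, MCF7, MDA-MB-231, SK-BR-3) were plated in 384-well plates and treated 24 h later with drugs at six concentrations (0.04-10 µM). Viable cells were counted by Hoechst/dead-cell-stain imaging at 0 and 72 h. Counts were normalised to DMSO controls on the same plate to give the relative cell count and the growth-rate inhibition (GR) value; technical plate triplicates were averaged for each biological replicate.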

SKBR3 = system: SKBR3
Method: as §1

MDAMB231 = system: MDAMB231
Method: as §1

MCF10A = system: MCF10A
Method: as §1

MCF7 = system: MCF7
Method: as §1

BT20 = system: BT20
Method: as §1

Structure (SMILES) | normalised growth rate inhibition (HS578T; 0.04 µM) | normalised growth rate inhibition (HS578T; 0.12 µM) | normalised growth rate inhibition (HS578T; 0.37 µM) | normalised growth rate inhibition (HS578T; 1.11 µM) | normalised growth rate inhibition (HS578T; 3.33 µM) | normalised growth rate inhibition (HS578T; 10 µM) | normalised growth rate inhibition (SKBR3; 0.04 µM) | normalised growth rate inhibition (SKBR3; 0.12 µM) | normalised growth rate inhibition (SKBR3; 0.37 µM) | normalised growth rate inhibition (SKBR3; 1.11 µM) | normalised growth rate inhibition (SKBR3; 3.33 µM) | normalised growth rate inhibition (SKBR3; 10 µM) | normalised growth rate inhibition (MDAMB231; 0.04 µM) | normalised growth rate inhibition (MDAMB231; 0.12 µM) | normalised growth rate inhibition (MDAMB231; 0.37 µM) | normalised growth rate inhibition (MDAMB231; 1.11 µM) | normalised growth rate inhibition (MDAMB231; 3.33 µM) | normalised growth rate inhibition (MDAMB231; 10 µM) | normalised growth rate inhibition (MCF10A; 0.04 µM) | normalised growth rate inhibition (MCF10A; 0.12 µM) | normalised growth rate inhibition (MCF10A; 0.37 µM) | normalised growth rate inhibition (MCF10A; 1.11 µM) | normalised growth rate inhibition (MCF10A; 3.33 µM) | normalised growth rate inhibition (MCF10A; 10 µM) | normalised growth rate inhibition (MCF7; 0.04 µM) | normalised growth rate inhibition (MCF7; 0.12 µM) | normalised growth rate inhibition (MCF7; 0.37 µM) | normalised growth rate inhibition (MCF7; 1.11 µM) | normalised growth rate inhibition (MCF7; 3.33 µM) | normalised growth rate inhibition (MCF7; 10 µM) | normalised growth rate inhibition (BT20; 0.04 µM) | normalised growth rate inhibition (BT20; 0.12 µM) | normalised growth rate inhibition (BT20; 0.37 µM) | normalised growth rate inhibition (BT20; 1.11 µM) | normalised growth rate inhibition (BT20; 3.33 µM) | normalised growth rate inhibition (BT20; 10 µM)
Cn1cc(-c2[nH]c3cc(NC(=O)[C@H](N)C4CCCCC4)cc4c3c2C=NNC4=O)cn1 | 0.956 ± 0.018 | 0.601 ± 0.064 | 0.107 ± 0.12 | -0.0219 ± 0.17 | -0.0376 ± 0.14 | -0.103 ± 0.15 | -0.00482 ± 0.19 | -0.09 ± 0.2 | -0.136 ± 0.17 | -0.151 ± 0.18 | -0.174 ± 0.14 | -0.183 ± 0.2 | 0.903 ± 0.039 | 0.913 ± 0.087 | 0.747 ± 0.14 | 0.535 ± 0.21 | 0.297 ± 0.22 | -0.0135 ± 0.14 | 0.9601 ± 0.0087 | 0.914 ± 0.022 | 0.83 ± 0.037 | 0.63 ± 0.071 | 0.267 ± 0.17 | -0.0312 ± 0.061 | 0.579 ± 0.056 | 0.411 ± 0.041 | 0.335 ± 0.04 | 0.235 ± 0.032 | 0.178 ± 0.018 | 0.0527 ± 0.038 | 0.886 ± 0.045 | 0.96 ± 0.035 | 0.9538 ± 0.0067 | 0.931 ± 0.027 | 0.8 ± 0.063 | 0.129 ± 0.15
C=CC(=O)Nc1cc2c(Nc3ccc(F)c(Cl)c3)ncnc2cc1OCCCN1CCOCC1 [canertinib] | 1 ± 0.028 | 0.996 ± 0.028 | 0.969 ± 0.019 | 0.944 ± 0.011 | 0.851 ± 0.034 | -0.289 ± 0.13 | 0.148 ± 0.089 | 0.023 ± 0.12 | -0.0304 ± 0.15 | -0.0844 ± 0.15 | -0.124 ± 0.14 | -0.261 ± 0.12 | 1.04 ± 0.029 | 0.965 ± 0.015 | 0.909 ± 0.026 | 0.782 ± 0.034 | 0.572 ± 0.099 | -0.249 ± 0.077 | 0.702 ± 0.24 | 0.498 ± 0.26 | 0.313 ± 0.2 | 0.173 ± 0.1 | 0.105 ± 0.033 | -0.39 ± 0.22 | 0.9894 ± 0.0058 | 0.884 ± 0.035 | 0.801 ± 0.053 | 0.67 ± 0.062 | 0.505 ± 0.13 | -0.367 ± 0.092 | 0.896 ± 0.044 | 0.8804 ± 0.0073 | 0.831 ± 0.027 | 0.814 ± 0.045 | 0.71 ± 0.061 | -0.13 ± 0.097
CN1CCN(CCOc2cc(OC3CCOCC3)c3c(Nc4c(Cl)ccc5c4OCO5)ncnc3c2)CC1 [saracatinib] | 0.9858 ± 0.0065 | 0.92 ± 0.039 | 0.828 ± 0.043 | 0.697 ± 0.088 | 0.609 ± 0.089 | 0.339 ± 0.092 | 1.15 ± 0.098 | 1.12 ± 0.1 | 1 ± 0.07 | 0.916 ± 0.08 | 0.763 ± 0.057 | 0.207 ± 0.11 | 0.862 ± 0.075 | 0.704 ± 0.086 | 0.587 ± 0.065 | 0.51 ± 0.09 | 0.489 ± 0.12 | 0.348 ± 0.11 | 1.012 ± 0.0071 | 0.9684 ± 0.0069 | 0.906 ± 0.045 | 0.745 ± 0.12 | 0.534 ± 0.14 | 0.108 ± 0.033 | 0.854 ± 0.055 | 0.661 ± 0.12 | 0.43 ± 0.2 | 0.323 ± 0.27 | 0.228 ± 0.26 | 0.266 ± 0.21 | 0.993 ± 0.057 | 0.944 ± 0.024 | 0.877 ± 0.032 | 0.785 ± 0.06 | 0.621 ± 0.11 | 0.26 ± 0.07
C[C@@H](Oc1cc(-c2cnn(C3CCNCC3)c2)cnc1N)c1c(Cl)ccc(F)c1Cl [crizotinib] | 0.976 ± 0.034 | 0.965 ± 0.042 | 0.903 ± 0.014 | 0.781 ± 0.12 | 0.367 ± 0.2 | 0.0436 ± 0.099 | 0.687 ± 0.14 | 0.808 ± 0.096 | 0.753 ± 0.15 | 0.629 ± 0.15 | 0.342 ± 0.14 | -0.181 ± 0.092 | 0.831 ± 0.13 | 0.885 ± 0.079 | 0.778 ± 0.096 | 0.509 ± 0.2 | 0.175 ± 0.12 | -0.0131 ± 0.13 | 0.988 ± 0.021 | 0.964 ± 0.032 | 0.934 ± 0.022 | 0.906 ± 0.015 | 0.833 ± 0.028 | 0.094 ± 0.017 | 0.762 ± 0.07 | 0.748 ± 0.078 | 0.618 ± 0.12 | 0.351 ± 0.17 | 0.0468 ± 0.047 | -0.174 ± 0.065 | 0.805 ± 0.04 | 0.91 ± 0.024 | 0.823 ± 0.015 | 0.742 ± 0.03 | 0.391 ± 0.17 | -0.0468 ± 0.072
Cc1cnc(Nc2ccc(OCCN3CCCC3)cc2)nc1Nc1cccc(S(=O)(=O)NC(C)(C)C)c1 | 1.01 ± 0.019 | 0.986 ± 0.019 | 0.887 ± 0.03 | 0.655 ± 0.066 | 0.258 ± 0.1 | -0.184 ± 0.17 | 1.07 ± 0.082 | 0.997 ± 0.013 | 0.907 ± 0.023 | 0.766 ± 0.065 | 0.501 ± 0.11 | -0.201 ± 0.095 | 1.01 ± 0.074 | 0.934 ± 0.075 | 0.877 ± 0.11 | 0.643 ± 0.19 | 0.104 ± 0.19 | -0.306 ± 0.15 | 0.989 ± 0.019 | 0.964 ± 0.018 | 0.938 ± 0.028 | 0.876 ± 0.041 | 0.512 ± 0.19 | 0.0536 ± 0.034 | 1.02 ± 0.06 | 0.96 ± 0.079 | 0.813 ± 0.11 | 0.545 ± 0.23 | 0.0996 ± 0.12 | -0.272 ± 0.058 | 1.04 ± 0.029 | 0.969 ± 0.0097 | 0.934 ± 0.022 | 0.823 ± 0.031 | 0.629 ± 0.024 | -0.141 ± 0.14
CS(=O)(=O)CCNCc1ccc(-c2ccc3ncnc(Nc4ccc(OCc5cccc(F)c5)c(Cl)c4)c3c2)o1 [lapatinib] | 0.982 ± 0.025 | 0.9754 ± 0.0072 | 0.976 ± 0.019 | 0.985 ± 0.015 | 1.01 ± 0.027 | 0.636 ± 0.14 | 0.0194 ± 0.093 | -0.00655 ± 0.072 | -0.0149 ± 0.1 | -0.0045 ± 0.12 | 0.00322 ± 0.13 | 0.133 ± 0.035 | 0.878 ± 0.033 | 0.9385 ± 0.0078 | 0.955 ± 0.01 | 0.948 ± 0.025 | 0.947 ± 0.011 | 0.62 ± 0.11 | 0.975 ± 0.029 | 0.957 ± 0.034 | 0.943 ± 0.047 | 0.895 ± 0.075 | 0.747 ± 0.16 | 0.288 ± 0.17 | 0.803 ± 0.12 | 0.872 ± 0.13 | 0.947 ± 0.074 | 0.936 ± 0.092 | 0.926 ± 0.051 | 0.321 ± 0.14 | 0.857 ± 0.091 | 0.957 ± 0.075 | 0.965 ± 0.053 | 0.991 ± 0.062 | 0.958 ± 0.11 | 0.749 ± 0.15
